For one test, the system named is RC17 hESCs. In words: Adherent differentiation of ventral mesencephalon progenitors on full-length laminin subtypes, day 0-11. Format: cell-based, human. The note with it: for yield of neural cells relative to a standard yield of 100%: laminin as coating, day 0-11 of the protocol. An excerpt:
To develop a GMP-compatible differentiation protocol for high and reproducible yield of caudilised mesDA ventral mesencephalon progenitors that would result in good graft outcome, a fully GMP-derived hES cell line RC17 from Roslin cells (hPS Creg #RCe021-A) was used. Previous research grade ventral mesencephalon differentiation protocols have implemented steps of embryoid body (EB) formation or culturing on MATRIGEL®, both of which pose problems in GMP adaptation due to difficulties in reproducibility and the content of undefined animal-derived component, respectively.
Relative to a standard yield of 100%, LN-111 yielded 170%, LN-421 yielded 294%, LN-511 yielded 223%, and LN-521 yielded 208%. RC17 cells were differentiated according to the methods described herein, but on plates that were coated with laminin-121 instead of laminin-111. FIG. 8C compares the yields, and the yields are about equal to each other, i.e. LN-121 works about as well as LN-111 as a substrate.

The subject of another test is undifferentiated hESCs. In words: Plating of undifferentiated hESCs on laminin matrix in pluripotency medium or differentiation medium. The note with it: laminin as matrix. Format: cell-based, human. Here is the method: When the same number of cells was plated onto LN-111 in B27 medium, the cultures remained adherent and grew to confluency after 7 days of differentiation while showing rapid downregulation of pluripotency markers.

This note sets out measurements from patent publication US11236302B2, “Methods and compositions for producing stem cell derived dopaminergic cells for use in treatment of neurodegenerative diseases” (BIOLAMINA AB, priority 2015, dated 2022).

With “LN-521: the protein formed by joining α5, β2 and γ1 chains together”, in the test on RC17 hESCs, the “yield of neural cells relative to a standard yield of 100%” value was found to be 208%. Moreover, the “support of growth of pluripotent stem cells versus neural cells” value with undifferentiated hESCs is recorded as “efficiently support growth of hPSCs”.

With “LN-121: the protein formed by joining α1, β2 and γ1 chains together”, in the test with RC17 hESCs (RC17 cells, plates coated with laminin-121 instead of laminin-111), the “yield of dopaminergic cells on LN-121 compared with LN-111” value was “about equal”.

For “LN-111: the protein formed by joining α1, β1 and γ1 chains together”, in the test on RC17 hESCs, the “yield of neural cells relative to a standard yield of 100%” value is listed as 170%. Further, the “support of growth of pluripotent stem cells versus neural cells” value in the test on undifferentiated hESCs is “selectively supported the growth of neural cells but not pluripotent stem cells”.

With “LN-421: the protein formed by joining α4, β2 and γ1 chains together”, in the test on RC17 hESCs, the “yield of neural cells relative to a standard yield of 100%” value is 294%.

“LN-511: the protein formed by joining α5, β1 and γ1 chains together”: the “yield of neural cells relative to a standard yield of 100%” value with RC17 hESCs is listed as 223%. Also, in the test with undifferentiated hESCs, the “support of growth of pluripotent stem cells versus neural cells” value was “efficiently support growth of hPSCs”.
